“Also recorded” adds a separate entry of the source. Where a name gives a salt, the structure may show the parent alone.
Columns and labels:
[1] = tested on: A/HK/7/87 virus (H3N2 subtype), wt M2; format: cell-based, influenza A virus
[2] = biological target: A/M2 wt channel (A/Udorn/72) (Influenza A virus, UniProt P0DOF5); assay: cell-based; format: cell-based
[3] = tested on: A/HK/7/87 virus (H3N2 subtype), wt M2; format: cell-based, influenza A virus; remark: listed apart in the source
MDCK cells = details: 100 μM

Sequence of A/M2 wt channel (A/Udorn/72) (P0DOF5 whole entry, looked up): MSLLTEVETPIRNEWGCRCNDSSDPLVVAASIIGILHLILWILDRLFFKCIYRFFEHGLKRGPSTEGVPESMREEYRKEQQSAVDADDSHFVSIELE

SMILES: Cl.OC1(CC2CCNCC2)C2CC3CC(C2)CC1C3 (stereo not drawn) [Compound 15, 2-(piperidin-4-ylmethyl)adamantan-2-ol hydrochloride]
- Antiviral activity in the PRA [1]: active

SMILES: N=C(N)N1CCC(CC2C3CC4CC(C3)CC2C4)CC1 (stereo not drawn) [Compound 20, 4-[(adamantan-2-yl)methyl]piperidine-1-carboximidamide hydrochloride]
- Binding behaviour [2]: weak binding affinity
- Antiviral activity in the PRA [1]: did not display antiviral activity

SMILES: C1CC(C23CC4CC(CC(C4)C2)C3)CCN1 [Compound 2, 4-(1-adamantyl)piperidine hydrochloride]
- Binding behaviour [2]: strong binder
- Reversibility of inhibition [2]: essentially irreversible
- Antiviral activity in the PRA [1]: active
- Antiviral activity confirmed in virus yield assay [3]: confirmed

SMILES: N=C(N)N1CCC(C23CC4CC(CC(C4)C2)C3)CC1 [Compound 7, N-amidyl-4-(1-adamantyl)piperidine hydrochloride]
- Binding behaviour [2]: weak binding affinity; also recorded: fast and weak binder
- Time after which compound dissociated from the channel [2]: 5 min
- Antiviral activity in the PRA [1]: did not display antiviral activity

SMILES: N=C(N)N1CCC(C=C2C3CC4CC(C3)CC2C4)CC1 [Compound 19, 4-[(adamantan-2-ylidene)methyl]piperidine-1-carboximidamide hydrochloride]
- Binding behaviour [2]: weak binding affinity
- Antiviral activity in the PRA [1]: did not display antiviral activity

SMILES: C1CCC(C23CC4CC(CC(C4)C2)C3)NC1 (stereo not drawn) [Compound 8, 2-(1-adamantyl)piperidine hydrochloride]
- Binding behaviour [2]: strong binders; also recorded: very slow but strong binding
- Reversibility of inhibition [2]: essentially irreversible
- inhibition at 100 µM ([2]; read-out: Inhibition after 6 min of treatment, 100 μM, 6 min): > 90%
- Antiviral activity in the PRA [1]: active
- Antiviral activity confirmed in virus yield assay [3]: confirmed
- Cytotoxicity at highest concentration tested (MDCK cells): devoid of cytotoxicity

— paper PMC5972026 (Journal of medicinal chemistry, 2017)
